In patent US7169772B2, “4,4-difluoro-1,2,3,4-tetrahydro-5H-1-benzazepine derivatives or salts thereof” (Astellas Pharma Inc., priority 2001, dated 2007) one finds IC50, Ki and ED50 data, which are given here for eight molecules.

Where only a bound is given, the exact number is not on record here.

In one series the target is CYP3A4 (Homo sapiens, UniProt P08684). The series is described as follows: Cytochrome P450 (3A4) enzyme inhibition assay. Format: biochemical. Particulars: substrate 7-benzyloxy-4-(trifluoromethyl)coumarin, 37° C., 30 minutes. Here is the method:
(4) Cytochrome P450 (3A4) Enzyme Inhibition Assay
(§1) The assay was carried out in accordance with a method of Crespi, et al. (Analytical Biochemistry, 248, 188–190, 1997).
A 96 well plate was employed, and 7-benzyloxy-4-(trifluoromethyl)coumarin (5×10^−5 M) as a substrate, a test compound (4.9×10^−8˜5×10^−5 M), and an enzyme (5×10^−9 M) were incubated in a total of 200 μl of a 200 mM phosphate buffer solution (pH=7.4) comprising 8.2 μM NADP+, 0.41 mM glucose-6-phosphate, 0.41 mM MgCl2, and 0.4 Units/ml glucose-6-phosphate dehydrogenase, at 37° C. for 30 minutes. Then, 0.5 M aqueous solution of 2-amino-2-hydroxymethyl-1,3-propanediol containing 80% acetonitrile was added thereto to stop the reaction, and fluorescence intensity was measured with a fluorescent plate reader (excited wavelength: 409 nm, fluorescent wavelength: 530 nm). […] Inhibition Rate (%)=100−(C1−B1)/(C0−B1)×100 • C1: fluorescence intensity in the presence of a known concentration of test compound, enzyme, and a substrate
(§2) C0: fluorescence intensity in the presence of an enzyme and a substrate, in the absence of a test compound • B1: fluorescence intensity of a blank well (5) Cytochrome P450 (2C9) Enzyme Inhibition Effects

For a further series, the target named is CYP2C9 (Homo sapiens, UniProt P11712). Description: Cytochrome P450 (2C9) enzyme inhibition effects. Format: biochemical. Conditions: substrate 7-methoxy-4-(trifluoromethyl)coumarin, 37° C., 45 minutes. Here is the method: as §2, §1
A 96 well plate was employed, and 7-methoxy-4-(trifluoromethyl)coumarin (7.5×10^−5 M) as a substrate, a test compound (4.9×10^−8˜5×10^−5M), and an enzyme (10^−8 M) were incubated in a total of 200 μl of a 200 mM phosphate buffer solution (pH=7.4) comprising 8.2 μM NADP+, 0.41 mM glucose-6-phosphate, 0.41 mM MgCl2, and 0.4 Units/ml glucose-6-phosphate dehydrogenase, at 37° C. for 45 minutes. Then, 0.5 M aqueous solution of 2-amino-2-hydroxymethyl-1,3-propanediol containing 80% acetonitrile was added thereto to stop the reaction, and fluorescence intensity was measured with a fluorescent plate reader (excited wavelength: 409 nm, fluorescent wavelength: 530 nm). […]

In another series the target is T1, human V2 receptor (Homo sapiens, UniProt P30518).
T1 construct: expressed in transfected cells; host or cells: CHO cells
Description: V2 receptor binding assay. Particulars: human V2 expression CHO cell membrane, [3H]-Vasopressin 0.5 nM, 25° C., 60 minutes; read-out: Ki (affinity for V2 receptor). As for the experimental part: (1) V2 Receptor Binding Assay
A human V2 expression CHO cell membrane sample was prepared in accordance with a method of Tahara, et al. (British Journal of Pharmacology. Vol 125, p. 1463–1470, 1998). 2 μg of the membrane sample were incubated in a total of 250 μl of 50 mM tris-chloric acid buffer solution (pH=7.4) containing 10 mM MgCl2 and 0.1% bovine serum albumin (BSA), together with [^3H]-Arginine-Vasopressin (hereinafter referred to as ‘[^3H]-Vasopressin’) (0.5 nM, Specific activity=75 Ci mmol) and a test compound (10^−10˜10^−5 M) at 25° C. for 60 minutes. Then, free [^3H]-Vasopressin and receptor binding [^3H]-Vasopressin were separated using a cell harvester, and the receptor binding [^3H]-Vasopressin was adsorbed on a Unifilter Plate GF/B glass filter, sufficiently dried, and then mixed with a microplate scintillation cocktail. The amount of receptor binding [^3H]-Vasopressin was measured using a top count, and inhibition rate was calculated by the following equation. Inhibition Rate(%)=100−(C1−B1)/(C0−B1)×100 • C1: the amount of [^3H]-Vasopressin bound to the membrane sample, when the receptor membrane sample is treated in the coexistence of a test compound of known concentration and [^3H]-Vasopressin • C0: the amount of [^3H]-Vasopressin bound to the membrane sample, when the receptor membrane sample is treated with [^3H]-Vasopressin, in the absence of a test compound • B1: the amount of [^3H]-Vasopressin bound to the membrane sample, when the receptor membrane sample is treated in the coexistence of an excess amount of Vasopressin (10^−6 M) and [^3H]-Vasopressin
Dissociation Coefficient (Ki)=IC50/(1+[L]/Kd) • [L]: the concentration of [^3H]-Vasopressin • Kd: dissociation coefficient of [3H]-Vasopressin for the receptor, calculated from saturation binding assay

The subject of another series is Wistar male rats. The series is described as follows: Antidiuresis assay (oral administration). The series is classed as in vivo. Particulars: Rattus norvegicus, read-out: ED50 (amount required for decreasing urinary excretion rate by 50%), 30 ml/kg water load after 15 minutes, urine until 4 hours after water load. As for the experimental part:
(3) Antidiuresis Assay (Oral Administration)
For the assay, Wistar male rats (10˜12 weeks of age) were employed. The test compound was orally administrated, and after 15 minutes, 30 ml/kg of distilled water were orally administrated (water load). Until 4 hours after the water load, urine was collected in a metabolism cage, and the amount of urine when the water load was set to 100% was calculated as the urinary excretion rate. […]

T1 sequence (P30518 whole entry): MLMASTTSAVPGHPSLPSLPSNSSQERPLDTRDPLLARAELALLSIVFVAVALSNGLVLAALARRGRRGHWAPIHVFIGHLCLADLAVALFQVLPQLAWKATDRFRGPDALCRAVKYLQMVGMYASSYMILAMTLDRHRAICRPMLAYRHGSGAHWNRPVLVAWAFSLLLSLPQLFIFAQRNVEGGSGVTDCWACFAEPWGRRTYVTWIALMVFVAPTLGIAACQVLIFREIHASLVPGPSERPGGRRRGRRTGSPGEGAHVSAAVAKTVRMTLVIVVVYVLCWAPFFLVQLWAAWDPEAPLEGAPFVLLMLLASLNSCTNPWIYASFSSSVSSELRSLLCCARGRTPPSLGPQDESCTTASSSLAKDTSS
Chain of CYP2C9 (P11712 whole entry): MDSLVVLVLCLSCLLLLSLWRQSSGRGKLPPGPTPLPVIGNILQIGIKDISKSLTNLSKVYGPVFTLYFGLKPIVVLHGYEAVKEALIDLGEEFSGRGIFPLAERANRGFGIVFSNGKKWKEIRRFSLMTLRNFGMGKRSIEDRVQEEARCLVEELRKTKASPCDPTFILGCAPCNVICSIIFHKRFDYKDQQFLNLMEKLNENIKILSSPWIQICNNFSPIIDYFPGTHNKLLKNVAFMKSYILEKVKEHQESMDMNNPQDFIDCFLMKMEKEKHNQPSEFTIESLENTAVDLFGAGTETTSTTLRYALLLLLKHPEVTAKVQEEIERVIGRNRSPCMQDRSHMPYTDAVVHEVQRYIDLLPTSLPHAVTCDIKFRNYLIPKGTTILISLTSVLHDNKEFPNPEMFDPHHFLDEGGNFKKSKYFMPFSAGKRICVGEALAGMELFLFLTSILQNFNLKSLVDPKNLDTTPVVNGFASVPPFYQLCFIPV
Chain of CYP3A4 (P08684 whole entry): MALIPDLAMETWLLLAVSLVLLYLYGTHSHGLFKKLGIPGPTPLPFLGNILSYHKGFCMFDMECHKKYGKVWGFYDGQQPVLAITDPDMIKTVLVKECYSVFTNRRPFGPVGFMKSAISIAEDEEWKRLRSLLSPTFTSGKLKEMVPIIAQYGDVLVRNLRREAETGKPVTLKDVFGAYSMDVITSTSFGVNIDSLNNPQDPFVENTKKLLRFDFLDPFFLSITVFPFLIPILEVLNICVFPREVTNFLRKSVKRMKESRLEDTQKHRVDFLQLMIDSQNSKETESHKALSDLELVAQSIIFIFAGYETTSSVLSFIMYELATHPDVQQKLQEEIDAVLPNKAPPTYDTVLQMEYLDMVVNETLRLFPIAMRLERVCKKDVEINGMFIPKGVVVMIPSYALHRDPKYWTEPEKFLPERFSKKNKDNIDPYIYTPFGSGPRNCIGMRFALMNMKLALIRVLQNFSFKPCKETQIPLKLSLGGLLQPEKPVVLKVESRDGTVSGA

Take `CC(C)NC(=O)C[C@H]1CCCN(C(=O)c2ccc(N3CCCC3)cc2Cl)c2ccccc21` [Control, 2-[(5R)-1-(2-chloro-4-pyrrolidin-1-ylbenzoyl)-2,3,4,5-tetrahydro-1H-1-benzazepin-5-yl]-N-isopropyacetamide, reference compound]: the IC50 on CYP3A4 and against CYP2C9 was less than 91 nM throughout. The Ki – broadly, the equilibrium dissociation constant of an inhibitor or competing ligand from its target – on human V2 receptor amounted to 68 nM.

As for `Cc1cccc(CNC(=O)/C=C2/c3ccccc3N(C(=O)c3ccc(-n4ccc(C)n4)cc3Cl)CCC2(F)F)n1` [Example 119, (2Z)-2-{1-[2-chloro-4-(3-methyl 1H-pyrazol-1-yl)benzoyl]-4,4-difluoro-1,2,3,4-tetrahydro-5H-1-benzazepin-5-ylidene}-N-[(6-methylpyridin-2-yl)methyl]acetamide], at human V2 receptor, the Ki is 5.6 nM.

For `Cc1ccn(-c2ccc(C(=O)N3CCC(F)(F)/C(=C\C(=O)Nc4ccc(C(N)=O)cc4)c4ccccc43)c(Cl)c2)n1` [Example 72, 4-[((2Z)-2-{1-[2-chloro-4-(3-methyl-1H-pyrazol-1-yl)benzoyl]-4,4-difluoro-1,2,3,4-tetrahydro-5H-1-benzazepin-5-ylidene}acetyl)amino]benzamide], at human V2 receptor, the Ki turned out to be 3.7 nM.

In the case of `NC(=O)CNC(=O)/C=C1/c2ccccc2N(C(=O)c2ccc(N3CCCC3)cc2Cl)CCC1(F)F` [Example 220, (2Z)-N-(2-amino-2-oxoethyl)-2-[1-(2-chloro-4-pyrrolidin-1-ylbenzoyl)-4,4-difluoro-1,2,3,4-tetrahydro-5H-1-benzazepin-5-ylidene]acetamide], the figures for the half-maximal inhibitory concentration (IC50) at CYP3A4 and against CYP2C9 were 10000 nM and 11000 nM, respectively.

`Cc1cccc(NC(=O)/C=C2/c3ccccc3N(C(=O)c3ccc(-n4ccc(C)n4)cc3Cl)CCC2(F)F)c1` [Example 74, (2Z)-2-{1-[2-chloro-4-(3-methyl-1H-pyrazol-1-yl)benzoyl]-4,4-difluoro-1,2,3,4-tetrahydro-5H-1-benzazepin-5-ylidene}-N-(3-methylphenyl)acetamide]: the inhibition constant (Ki) on human V2 receptor is 5.6 nM.

On to `Cc1ccn(-c2ccc(C(=O)N3CCC(F)(F)/C(=C\C(=O)Nc4cccc(CO)c4)c4ccccc43)c(Cl)c2)n1` [Example 76, (2Z)-2-{1-[2-chloro-4-(3-methyl-1H-pyrazol-1-yl)benzoyl]-4,4-difluoro-1,2,3,4-tetrahydro-5H-1-benzazepin-5-ylidene}-N-[3-(hydroxymethyl)phenyl]acetamide], for which the Ki at human V2 receptor turned out to be 2.2 nM. The ED50 in the series with Wistar male rats is 0.22 mg/kg.

As to `Cc1ccn(-c2ccc(C(=O)N3CCC(F)(F)/C(=C\C(=O)N4CCCC(C(N)=O)C4)c4ccccc43)c(Cl)c2)n1` (stereo not shown) [Example 58, 1-((2Z)-2-{1-[2-chloro-4-(3-methyl-1H-pyrazol-1-yl)benzoyl]-4,4-difluoro-1,2,3,4-tetrahydro-5H-1-benzazepin-5-ylidene}acetyl)piperidine-3-carboxamide], the Ki at human V2 receptor worked out at 4.8 nM.

Consider `Cc1ccn(-c2ccc(C(=O)N3CCC(F)(F)/C(=C\C(N)=O)c4ccccc43)c(Cl)c2)n1` [Example 8, (2Z)-2-{1-[2-chloro-4-(3-methyl-1H-pyrazol-1-yl)benzoyl]-4,4-difluoro-1,2,3,4-tetrahydro-5H-benzazepine}acetamide], for which the results for the IC50 against CYP3A4 and on CYP2C9 were greater than 20000 nM and 13000 nM, respectively.
